Patent US7196229B2, “Benzoylcyclohexenone derivatives” (BASF Aktiengesellschaft, priority 2001, dated 2007)

Key:
[1] = tested on: AMARE; experiment: greenhouse post-emergence herbicidal test; format: in vivo, redroot pigweed; details: application rates of 0.125 or 0.0625 kg/ha
Text: (§1) The seeds of the test plants were sown separately for each species. For the post-emergence treatment, the test plants were first grown to a height of from 3 to 15 cm, depending on the plant habit, and only then treated with the active compounds which had been suspended or emulsified in water. The test plants were for this purpose either sown directly and grown in the same containers, or they were first grown separately as seedlings and transplanted into the test containers a few days prior to treatment. The application rate for the post-emergence treatment was 0.125 and 0.0625 kg of a.s. (active substance)/ha. Depending on the species, the plants were kept at 10–25° C. or 20–35° C. The test period extended over 2 to 4 weeks. During this time, the plants were tended, and their response to the individual treatments was evaluated. The evaluation was carried out using a scale from 0 to 100. 100 means no emergence of the plants, or complete destruction of at least the aerial parts and 0 means no damage, or normal course of growth. The plants used in the greenhouse experiments were of the following species: [table]

[2] = tested on: ECHCG; experiment: greenhouse post-emergence herbicidal test; format: in vivo, barnyard grass; details: application rates of 0.125 or 0.0625 kg/ha
Text: as §1

[3] = tested on: SETFA; experiment: greenhouse post-emergence herbicidal test; format: in vivo, giant foxtail; details: application rates of 0.125 or 0.0625 kg/ha
Text: as §1

[4] = tested on: CHEAL; experiment: greenhouse post-emergence herbicidal test; format: in vivo, lambsquarters; details: application rates of 0.125 or 0.0625 kg/ha
Text: as §1

[5] = tested on: PHBPU; experiment: greenhouse post-emergence herbicidal test; format: in vivo, morning glory; details: application rates of 0.125 or 0.0625 kg/ha
Text: as §1

[6] = tested on: ABUTH; experiment: greenhouse post-emergence herbicidal test; format: in vivo, velvetleaf; details: application rates of 0.125 or 0.0625 kg/ha
Text: as §1

[7] = tested on: POLPE; experiment: greenhouse post-emergence herbicidal test; format: in vivo, ladys thumb; details: application rates of 0.125 or 0.0625 kg/ha
Text: as §1

| Structure (SMILES) | melting point | herbicidal post-emergence activity against ECHCG [2] | herbicidal post-emergence activity against CHEAL [4] | further results |
| --- | --- | --- | --- | --- |
| Cc1c(C(=O)C2=C(n3cccn3)CCCC2=O)ccc(S(C)(=O)=O)c1S(C)(=O)=O [Compound 3.1] | 275 to 277 °C | – | – | – |
| Cc1c(C(=O)C2=C(O)CC(C)(C)CC2=O)ccc(S(C)(=O)=O)c1S(C)(=O)=O [Compound 2.5] | – | very good | very good | herbicidal post-emergence activity against AMARE [1]: very good; herbicidal post-emergence activity against SETFA [3]: very good |
| Cc1c(C(=O)C2=C(O)CCC(C)(C)C2=O)ccc(S(C)(=O)=O)c1S(C)(=O)=O [Compound 2.4] | – | very good | very good | herbicidal post-emergence activity against SETFA [3]: very good; herbicidal post-emergence activity against PHBPU [5]: very good |
| Cc1c(C(=O)C2=C(n3cccn3)CC(C)CC2=O)ccc(S(C)(=O)=O)c1S(C)(=O)=O (centres unmarked) [Compound 3.2] | 278 to 283 °C | – | – | – |
| Cc1c(C(=O)C2=C(O)CC(C)CC2=O)ccc(S(C)(=O)=O)c1S(C)(=O)=O (centres unmarked) [Compound 2.3] | 235 to 239 °C | very good | very good | herbicidal post-emergence activity against ABUTH [6]: very good; herbicidal post-emergence activity against PHBPU [5]: very good |

More lines, main results first:

| melting point | Structure (SMILES) | herbicidal post-emergence activity against ECHCG [2] | herbicidal post-emergence activity against CHEAL [4] | further results |
| --- | --- | --- | --- | --- |
| 64 to 69 °C | Cc1c(C(=O)C2=C(O)CCCC2=O)ccc(OC(F)F)c1S(C)(=O)=O [Compound 2.10] | – | – | – |
| 121 to 129 °C | COc1ccc(C(=O)C2=C(O)CCCC2=O)c(C)c1S(C)(=O)=O [Compound 2.7] | – | – | – |
| 106 to 112 °C | COc1ccc(C(=O)C2=C(O)CC(C)CC2=O)c(C)c1S(C)(=O)=O (centres unmarked) [Compound 2.9] | – | – | – |
| 163 to 165 °C | COc1ccc(C(=O)C2=C(O)CC(C)(C)CC2=O)c(C)c1S(C)(=O)=O [Compound 2.8] | – | – | – |
| 301 to 302 °C | Cc1c(C(=O)C2=C(O)CCCC2=O)ccc(S(C)(=O)=O)c1S(C)(=O)=O [Compound 2.1, 2-[2-Methyl-3,4-di(methylsulfonyl)benzoyl]cyclohexane-1,3-dione] | very good | very good | herbicidal post-emergence activity against ABUTH [6]: very good; herbicidal post-emergence activity against POLPE [7]: very good |
| 137 to 140 °C | Cc1c(C(=O)C2=C(O)CCCC2=O)ccc(Cl)c1S(C)(=O)=O [Compound 2.6] | very good | – | herbicidal post-emergence activity against ABUTH [6]: very good; herbicidal post-emergence activity against POLPE [7]: very good; herbicidal post-emergence activity against SETFA [3]: very good |
